≈ marks a conversion by molar mass, not a printed value. Bridge positions count the residues as written; N and C are the ends. Square brackets hold non-standard residues; d marks the D form. Peptide text beside a SMILES is read from it. d(aIle) = CC[C@H](C)[C@@H](N)C(=O)O; dNMeF = CN[C@H](Cc1ccccc1)C(=O)O
Key:
[1] = system: MRSA 2: MRSA DR 42412 (sputum); assay: microbe, parasite or virus in culture
Protocol: (§1) VIII. MIC testing (extended panel)
(§2) Bacterial cultures were grown overnight i n Mueller-Hinton Agar (MHA) plates and adjusted to a final concentration of 10 5 – 106 CFU/ml. 100 µl of inoculum in Meuller -Hinton broth (MHB) was mixed with equal volume of peptides (dissolved in MHB) at 2x their concentration in a 96 well plate. In parallel experiments, MIC values were determined in the media containing polysorbate 80 (0 .002%, v/v) to […]
(§3) prevent non-specific adsorption of the peptides to plastic surfaces. The final peptides concentrations […]
(§4) Positive and negative controls contained 200 µl of inoculum without any peptide dissolved in broth, respectively. The 96 well plates were then incubated at 37 °C for 24 h. […]
(§5) 80. Strain information: MRSA 1: MRSA ATCC 700699, MRSA 2: MRSA DR 42412 (sputum), MRSA
(§6) 3: MRSA DM21455 (eye). […] Staphylococcus aureus ATCC

[2] = system: VRE 1: VRE ATCC 700802; assay: organism not typed
Protocol: as §1, §2, §3, §4, §5, §6

[3] = system: VRE 2: VRE ATCC 29212; assay: organism not typed
Protocol: as §1, §2, §3, §4, §5, §6

[4] = system: Staphylococcus aureus ATCC 29213; assay: microbe, parasite or virus in culture
Protocol: as §1, §2, §3
(§7) Positive and negative controls contained 200 µl of inoculum without any peptide dissolved in broth, respectively. The 96 well plates were then incubated at 37 °C for 24 h.
(§8) All the experiments were performed in two independent duplicates and the MIC was determined as the […]
(§9) Minimum bactericidal concentration
(§10) The lowest concentration in which no visible colonies could be detected was taken as the MBC.
as §5, §6

[5] = system: MRSA 1: MRSA ATCC 700699; assay: microbe, parasite or virus in culture
Protocol: as §1, §2, §3, §7, §8, §9, §10, §5, §6

[6] = system: MRSA 3: MRSA DM21455 (eye); assay: microbe, parasite or virus in culture
Protocol: as §1, §2, §3, §7, §8, §9, §10, §5, §6

[7] = system: MRSA ATCC 33591; assay: microbe, parasite or virus in culture
Protocol: were grown in Mueller Hinton broth (Oxoid) in triplicate. All incubations were at 37°C. Dilutions were carried out in triplicate. 100 µl of autoclaved Mueller Hinton broth was added to wells 2-12 in a 96-well plate. 200 µl of the peptide was added to well one at a concentration of 256 µg/mL. 100µl of peptide in well one was taken up and pipetted into well two. The mixture was then mixed via pipetting before 100µl was taken up and pipetted into well three. This process was repeated up to well 11. Once […]
peptide present. Thus, the concentrations (in µg/mL) were: 256, 128, 64, 32, 16, 8, 4, 2, 1, 0.5, 0.25 and no peptide present. Each well was then inoculated with 100µl of bacteria that had been diluted to an […]
This was repeated three times. The 96-well plates were then incubated at 37°C for 24 hours. The MIC was determined to be the lowest concentration at which there was no growth visible. […]
was repeated at an altered initial concentration of 64 µg/ml. Therefore, the new concentrations for MIC […]
as §1, §2

- MIC ([1]; 2: DR 42412 (sputum, 24 h)): 0.5 μg mL^–1
- MIC (without polysorbate 80) ([1]; 2: DR 42412 (sputum, 24 h)): 2 µg/mL (≈ 1.68 µM)
- MIC (with polysorbate 80) ([1]; MRSA 2, MHB containing polysorbate 80 (0.002%, v/v), 37 °C, 24 h): 0.5 µg/mL (≈ 0.421 µM)
- MIC ([2]; ATCC 700802, 24 h): 0.5 μg mL^–1
- MIC (without polysorbate 80) ([2]; ATCC 700802, 24 h): 4 µg/mL (≈ 3.37 µM)
- MIC (with polysorbate 80) ([2]; VRE 1, MHB containing polysorbate 80 (0.002%, v/v), 37 °C, 24 h): 0.5 µg/mL (≈ 0.421 µM)
- MIC ([3]; ATCC 29212, 24 h): 0.5 μg mL^–1
- MIC (without polysorbate 80) ([3]; ATCC 29212, 24 h): 4 µg/mL (≈ 3.37 µM)
- MIC (with polysorbate 80) ([3]; VRE 2, MHB containing polysorbate 80 (0.002%, v/v), 37 °C, 24 h): 0.5 µg/mL (≈ 0.421 µM)
- MIC (without polysorbate 80) ([4]; ATCC 29213, 24 h): 2 µg/mL (≈ 1.68 µM)
- MIC (with polysorbate 80) ([4]; S. aureus ATCC 29213, MHB containing polysorbate 80 (0.002%, v/v), 37 °C, 24 h): 0.25 µg/mL (≈ 0.211 µM)
- MIC ([5]; ATCC 700699, 24 h): 1 μg mL^–1
- MIC (without polysorbate 80) ([5]; ATCC 700699, 24 h): 4 µg/mL (≈ 3.37 µM)
- MIC (with polysorbate 80) ([5]; MRSA 1, MHB containing polysorbate 80 (0.002%, v/v), 37 °C, 24 h, two independent duplicates): 1 µg/mL (≈ 0.842 µM)
- MIC ([6]; 3: DM21455 (eye, 24 h)): 0.25 μg mL^–1
- MIC (without polysorbate 80) ([6]; 3: DM21455 (eye, 24 h)): 4 µg/mL (≈ 3.37 µM)
- MIC (with polysorbate 80) ([6]; MRSA 3, MHB containing polysorbate 80 (0.002%, v/v), 37 °C, 24 h): 0.25 µg/mL (≈ 0.211 µM)
- MIC ([7]; ATCC 33591, 24 h): 0.5 μg mL^–1
SMILES: CC[C@H](C)[C@H](NC(=O)[C@@H](Cc1ccccc1)NC)C(=O)N[C@@H](CO)C(=O)N[C@H](CCC(N)=O)C(=O)N[C@@H](C(=O)N[C@H](C(=O)N[C@@H](CO)C(=O)N[C@H]1C(=O)N[C@@H](C)C(=O)N[C@@H](C(C)C)C(=O)N[C@@H]([C@@H](C)CC)C(=O)O[C@H]1C)[C@@H](C)CC)[C@@H](C)CC [Compound 11, Val10-teixobactin] (H-[dNMeF]IS[dQ][d(aIle)]IS[dT]AVI; ester 8-C)
- MBC ([1]; MRSA 2 (MRSA DR 42412), plated on MHA, 37 °C, 24 h): 4 μg mL^–1
- MBC ([4]; Staphylococcus aureus ATCC 29213, plated on MHA, 37 °C, 24 h): 1 μg mL^–1
- MBC ([5]; MRSA 1 (MRSA ATCC 700699), plated on MHA, 37 °C, 24 h): 4 μg mL^–1
- MBC ([6]; MRSA 3 (MRSA DM21455), plated on MHA, 37 °C, 24 h): 2 μg mL^–1
- times better antibacterial activity than Arg10-teixobactin ([7]; from MIC against MRSA ATCC 33591): 4 times

Source: publication PMC5855875, “Teixobactin analogues reveal enduracididine to be non-essential for highly potent antibacterial activity and lipid II binding” (Chemical Science, 2017)
